Reference: US6855843B2, “Inhibitors of α4 mediated cell adhesion” (Tanabe Seiyaku Co., Ltd., priority 1998, dated 2005)

Columns and labels:
[1] = target: T1, α4β7 (adhesion of RPMI cells to CS-1) (Homo sapiens, UniProt P13612+P26010); test: RPMI-CS-1 cell adhesion assay; type: cell-based; conditions: adhesion of RPMI B-cell line (expresses α4β7) to CS-1 peptide coated microwells; read-out: RPMI-CS-1 IC50 value range
T1 construct: endogenous in cells
T1 sequence (P13612 34-1032): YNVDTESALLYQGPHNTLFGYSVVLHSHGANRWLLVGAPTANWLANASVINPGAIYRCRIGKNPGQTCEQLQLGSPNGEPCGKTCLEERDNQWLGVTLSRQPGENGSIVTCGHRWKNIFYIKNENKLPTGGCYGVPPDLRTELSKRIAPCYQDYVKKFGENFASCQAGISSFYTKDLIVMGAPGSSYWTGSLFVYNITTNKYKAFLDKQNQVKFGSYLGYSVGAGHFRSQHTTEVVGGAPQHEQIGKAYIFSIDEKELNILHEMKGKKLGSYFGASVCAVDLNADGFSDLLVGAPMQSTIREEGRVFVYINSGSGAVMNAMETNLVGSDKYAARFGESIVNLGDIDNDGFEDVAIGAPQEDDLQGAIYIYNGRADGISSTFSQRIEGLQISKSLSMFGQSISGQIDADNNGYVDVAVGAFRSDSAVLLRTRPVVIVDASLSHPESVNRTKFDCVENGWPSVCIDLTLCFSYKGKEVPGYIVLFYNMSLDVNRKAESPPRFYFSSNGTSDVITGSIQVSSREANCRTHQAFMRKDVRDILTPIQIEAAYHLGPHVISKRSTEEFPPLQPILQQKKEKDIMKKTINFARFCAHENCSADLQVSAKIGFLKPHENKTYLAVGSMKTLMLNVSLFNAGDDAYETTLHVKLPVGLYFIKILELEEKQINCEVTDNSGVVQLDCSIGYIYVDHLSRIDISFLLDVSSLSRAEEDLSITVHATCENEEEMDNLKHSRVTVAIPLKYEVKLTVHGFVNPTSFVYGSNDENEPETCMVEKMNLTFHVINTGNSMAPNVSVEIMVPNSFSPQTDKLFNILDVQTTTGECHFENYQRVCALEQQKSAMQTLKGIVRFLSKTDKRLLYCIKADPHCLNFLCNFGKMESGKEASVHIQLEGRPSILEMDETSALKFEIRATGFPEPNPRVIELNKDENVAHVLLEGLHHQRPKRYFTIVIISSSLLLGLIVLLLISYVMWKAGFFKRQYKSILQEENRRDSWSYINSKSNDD
T1 sequence (P26010 20-798): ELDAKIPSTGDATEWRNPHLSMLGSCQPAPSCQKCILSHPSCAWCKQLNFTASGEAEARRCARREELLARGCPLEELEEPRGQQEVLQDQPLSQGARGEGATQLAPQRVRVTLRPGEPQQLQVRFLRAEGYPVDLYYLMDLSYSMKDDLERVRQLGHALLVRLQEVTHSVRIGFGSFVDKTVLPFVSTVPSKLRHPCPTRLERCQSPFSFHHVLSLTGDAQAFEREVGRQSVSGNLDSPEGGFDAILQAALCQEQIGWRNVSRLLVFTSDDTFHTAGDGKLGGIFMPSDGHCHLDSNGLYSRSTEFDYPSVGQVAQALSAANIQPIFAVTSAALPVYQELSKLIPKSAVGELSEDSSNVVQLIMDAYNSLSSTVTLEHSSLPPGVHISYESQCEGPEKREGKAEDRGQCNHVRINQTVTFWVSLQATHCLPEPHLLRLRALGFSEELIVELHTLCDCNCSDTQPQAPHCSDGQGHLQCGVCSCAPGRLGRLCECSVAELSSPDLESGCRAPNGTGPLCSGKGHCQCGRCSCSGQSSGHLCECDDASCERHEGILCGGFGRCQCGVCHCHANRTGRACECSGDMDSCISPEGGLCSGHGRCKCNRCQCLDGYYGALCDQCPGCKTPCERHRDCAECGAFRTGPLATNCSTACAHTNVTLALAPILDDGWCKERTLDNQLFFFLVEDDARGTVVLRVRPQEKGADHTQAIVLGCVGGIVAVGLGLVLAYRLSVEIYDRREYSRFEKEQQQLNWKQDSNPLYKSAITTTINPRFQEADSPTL

Row | IC50 [1] | melting point | SMILES
1 | < 300 nM | 142 to 144 °C | COc1cccc(OC)c1-c1ccc(C[C@H](NC(=O)c2c(Cl)cccc2Cl)C(=O)O)cc1NC(C)=O [Example 297, N-(2,6-Dichlorobenzoyl)-4-(2,6-dimethoxyphenyl)-3-acetylamino-L-phenylalanine]
2 | < 300 nM | 118 to 120 °C | COc1cccc(OC)c1-c1ccc(C[C@H](NC(=O)c2c(Cl)cccc2Cl)C(=O)O)cc1NS(C)(=O)=O [Example 298]
3 | < 300 nM | 216 to 217 °C | CCOC(=O)Nc1cc(C[C@H](NC(=O)c2c(Cl)cccc2Cl)C(=O)O)ccc1-c1c(OC)cccc1OC [Example 299]
4 | < 300 nM | 215 °C | COc1cccc(OC)c1-c1ccc(C[C@H](NC(=O)c2c(Cl)cc(-c3ccccc3)cc2Cl)C(=O)O)cc1 [Example 301, N-(2,6-Dichloro-4-phenylbenzoyl)-4-(2,6-dimethoxyphenyl)-L-phenylalanine]
5 | < 300 nM | 199 °C | COc1cccc(OC)c1-c1ccc(C[C@H](NC(=O)c2c(Cl)cc(-c3cccn3C)cc2Cl)C(=O)O)cc1 [Example 302, N-[2,6-Dichloro-4-(1-methyl-2-pyrrolyl)benzoyl]-4-(2,6-dimethoxyphenyl)-L-phenylalanine]
6 | < 300 nM | 250 °C | COc1cccc(OC)c1-c1ccc(C[C@H](NC(=O)c2c(Cl)cc(-c3ccc[nH]3)cc2Cl)C(=O)O)cc1 [Example 303, N-[4-(2-Pyrrolyl)-2,6-dichlorobenzoyl]-4-(2,6-dimethoxyphenyl)-L-phenylalanine]
7 | 300 to 1000 nM | 144.8 °C | COc1cccc(OC)c1-c1ccc(C[C@H](NC(=O)c2c(Cl)ccc(-c3c(C)noc3C)c2Cl)C(=O)O)cc1 [Example 305, N-[3-(3,5-Dimethyl-4-isoxazolyl)-2,6-dichlorobenzoyl]-4-(2,6-dimethoxyphenyl)-L-phenylalanine]
8 | < 300 nM | 141.9 °C | COc1cccc(OC)c1-c1ccc(C[C@H](NC(=O)c2c(Cl)cc(-c3nccs3)cc2Cl)C(=O)O)cc1 [Example 306, N-[4-(1,3-thiazol-2-yl)-2,6-dichlorobenzoyl]-4-(2,6-dimethoxyphenyl)-L-phenylalanine]
9 | < 300 nM | 186.5 °C | COc1cccc(OC)c1-c1ccc(C[C@H](NC(=O)c2c(Cl)cc(-c3cscn3)cc2Cl)C(=O)O)cc1 [Example 307, N-[4-(1,3-Thiazol-4-yl)-2,6-dichlorobenzoyl]-4-(2,6-dimethoxyphenyl)-L-phenylalanine]
10 | < 300 nM | 145.7 °C | COc1cccc(OC)c1-c1ccc(C[C@H](NC(=O)c2c(Cl)cc(-c3cnccn3)cc2Cl)C(=O)O)cc1 [Example 308, N-[4-(2-Pyrazinyl)-2,6-dichlorobenzoyl]-4-(2,6-dimethoxyphenyl)-L-phenylalanine]
11 | < 300 nM | 241 to 242 °C | COc1ccc(CN2CCOCC2)c(OC)c1-c1ccc(C[C@H](NC(=O)c2c(Cl)cccc2Cl)C(=O)O)cc1 [Example 319, N-(2,6-Dichlorobenzoyl)-4-[2,6-dimethoxy-3-(morpholinomethyl)phenyl]-L-phenylalanine]

The remaining lines, values behind:

Row | SMILES | IC50 [1] | melting point
12 | COc1cccc(OCCF)c1-c1ccc(C[C@H](NC(=O)c2c(Cl)cccc2Cl)C(=O)O)cc1 [Example 228, N-(2,6-Dichlorobenzoyl)-4-[6-methoxy-2-(2-fluoroethoxy)phenyl]-L-phenylalanine] | < 300 nM | 206 to 207 °C
13 | O=C(N[C@@H](Cc1ccc(-c2c(OCCO)cccc2OCCO)cc1)C(=O)O)c1c(Cl)cccc1Cl [Example 229] | < 300 nM | 124 to 125 °C
14 | O=C(N[C@@H](Cc1ccc(-c2c(OCC(F)(F)F)cccc2OCC(F)(F)F)cc1)C(=O)O)c1c(Cl)cccc1Cl [Example 230] | 300 to 1000 nM | 93 to 94 °C
15 | N#CCOc1cccc(OCC#N)c1-c1ccc(C[C@H](NC(=O)c2c(Cl)cccc2Cl)C(=O)O)cc1 [Example 231] | < 300 nM | 175 to 176 °C
16 | CN(C)CCOc1cccc(O)c1-c1ccc(C[C@H](NC(=O)c2c(Cl)cccc2Cl)C(=O)O)cc1 [Example 232] | < 300 nM | 168 to 169 °C
17 | COCCOc1ccc2c(c1-c1ccc(C[C@H](NC(=O)c3c(Cl)cccc3Cl)C(=O)O)cc1)OCO2 [Example 233, N-(2,6-Dichlorobenzoyl)-4-[2,3-methylenedioxy-6-(2-methoxyethoxy)phenyl]-L-phenylalanine] | 300 to 1000 nM | 167 to 168 °C
18 | COc1ccc2c(c1-c1ccc(C[C@H](NC(=O)c3c(Cl)cccc3Cl)C(=O)O)cc1)OCCO2 [Example 241, N-(2,6-Dichlorobenzoyl)-4-(2,3-ethylenedioxy-6-methoxyphenyl)-L-phenylalanine] | < 300 nM | 218 °C
19 | CNCc1cc(OC)c(-c2ccc(C[C@H](NC(=O)c3c(Cl)cccc3Cl)C(=O)O)cc2)c(OC)c1 [Example 242, N-(2,6-Dichlorobenzoyl)-4-[2,6-dimethoxy-4-[(methylamino)methyl]phenyl]-L-phenylalanine] | < 300 nM | 274 °C
20 | COc1cc(CN2CC[S+]([O-])CC2)cc(OC)c1-c1ccc(C[C@H](NC(=O)c2c(Cl)cccc2Cl)C(=O)O)cc1 [Example 263B, N-(2,6-Dichlorobenzoyl)-4-[2,6-dimethoxy-4-(thiomorpholinomethyl)phenyl]-L-phenylalanine S-oxide] | < 300 nM | 162.8 °C
21 | COc1cc(CCN2CCN(C)CC2)cc(OC)c1-c1ccc(C[C@H](NC(=O)c2c(Cl)cccc2Cl)C(=O)O)cc1 [Example 264, N-(2,6-Dichlorobenzoyl)-4-[2,6-dimethoxy-4-[2-(4-methyl-1-piperazinyl)ethyl]phenyl]-L-phenylalanine] | < 300 nM | 178.9 °C
22 | COc1cc(CCN2CCCCC2)cc(OC)c1-c1ccc(C[C@H](NC(=O)c2c(Cl)cccc2Cl)C(=O)O)cc1 [Example 265, N-(2,6-Dichlorobenzoyl)-4-[2,6-dimethoxy-4-(2-piperidinoethyl)phenyl]-L-phenylalanine] | < 300 nM | 194.9 °C
23 | COc1cccc(OC)c1-c1ccc(C[C@H](NC(=S)c2c(Cl)cccc2Cl)C(=O)O)cc1 [Example 266, N-(2,6-Dichlorothiobenzoyl)-4-(2,6-dimethoxyphenyl)-L-phenylalanine] | < 300 nM | 180.4 °C
24 | COc1cccc(OC)c1-c1ccc(C[C@H](NC(=O)c2c(Cl)cccc2Cl)C(=O)O)s1 [Example 294, N-(2,6-Dichlorobenzoyl)-3-[5-(2,6-dimethoxyphenyl)-2-thienyl]-L-alanine] | 1000 to 5000 nM | 134 °C (dec.)
25 | COc1cccc(OC)c1-c1ccc(CC[C@H](NC(=O)c2c(Cl)cccc2Cl)C(=O)O)cc1 [Example 295, N-(2,6-Dichlorobenzoyl)-4-(2,6-dimethoxyphenyl)-L-homophenylalanine] | 1000 to 5000 nM | 105 to 107 °C
26 | CCc1cc(C[C@H](NC(=O)c2c(Cl)cccc2Cl)C(=O)O)ccc1-c1ccccc1OC [Example 296, N-(2,6-Dichlorobenzoyl)-3-ethyl-4-(2-methoxyphenyl)-L-phenylalanine] | < 300 nM | 105 to 107 °C
